Laboratory results as given in paper PMC11881160 (International Journal of Nanomedicine, 2025).
Marks after values point to notes of the source that are not given here.

Tests used:
[1] = stated in the discussion without reference; species not given; cited from earlier work
[2] = Pharmacokinetic study of LUT and LUT-NS-LP in rats; type: in vivo, Sprague-Dawley (SD) rats
[3] = In vitro dissolution test; type: physicochemical; details: 100 rpm, n=3
[4] = tested on: CYP450s of Rat Liver Microsomes (RLMs); assay: In vitro CYP450 metabolism of ATV and inhibition by LUT in rat liver microsomes; details: CYP450s mixture of RLMs, Lineweaver-Burk plots
[5] = PBPK model input; ATV value marked (acid); ref Drugbank; cited from earlier work
[6] = male, Sprague-Dawley, rat, plasma, po, 200 mg/kg

Structure (SMILES): O=c1cc(-c2ccc(O)c(O)c2)oc2cc(O)cc(O)c12 [LUT, Luteolin]
- Oral absolute bioavailability [1]: under 5%
- AUC(0-inf) [2, 6]: 4230 ± 1510 ng·h/mL
- AUC(0-t) [2, 6]: 3840 ± 1390 ng·h/mL
- CL/F [2, 6]: 880 mL/min/kg
- Cmax [2, 6]: 1140 ± 320 ng/mL
- MRT inf [2, 6]: 4.02 ± 1.68 h
- MRT last [2, 6]: 2.88 ± 0.96 h
- Tmax [2, 6]: 0.92 ± 0.59 h
- Vd/F [2, 6]: 178 ± 85.1 L/kg
- half-life [2, 6]: 2.6 ± 1.52 h
- F (bioavailability) ([2]; relative to LUT, rats, oral 200 mg/kg): 1 fold
- Drug release ([3]; pH 1.2 buffer containing 0.05% Tween 80, after 120 min, 37°C): 36.58 ± 0.99%
- Drug release ([3]; pH 6.8 phosphate buffer containing 0.05% Tween 80, 37°C): 59.10 ± 3.13%
- Form of inhibition of ATV metabolism by LUT [4]: non-competitive
- pKa [5]: 6.57^a
